Data published in patent US4801612A, “Method of inhibiting inflammatory response” (Regents of the University of California, priority 1986, dated 1989).

What was measured:
rat hind paw [1] = test: Heat-induced paw edema and protein extravasation (Evans blue), hind paw in 58° C. water for 5 min.; format: in vivo
Experimental: Male albino rats weighing 200 to 280 g were anesthetized with sodium pentobarbital, 60 mg/kg i.p., and a right jugular vein cannulated for drug injections. Human/rat CRF (at various dosages described below) or saline, and Evans blue dye, 50 mg/kg, were injected intravenously 10 and 3 min., respectively, before immersion of the hind paw in 48° C. or 58° C. water for 5 min. The frequency of paw withdrawal from the water was then counted.
(§1) At the end of the exposure period, the animals were sacrificed and the dorsal skin, between the calcaneal process and phalanges, was removed from both paws, weighed, and each placed in 4 ml of formamide for 3 days at room temperature. The extracted Evans blue was quantified colorimetrically at 600 nm with readings from the untreated paw skin used as the blank values.
Protein extravasation was measured by injecting a dye into a blood compartment of the animal. The dye binds to blood proteins and when the permeability of the tissue is increased by the heat, the dye leaks into the skin of the paw. The skin of the paw was excised, the dye extracted, and the amount of dye in the skin was measured to provide an index of the skin permeability changes that accompany the heat damage. […] In a manner analogous to that described above for administration of CRF, sauvagine was administered and paws of the anesthetized recipients exposed to water at 58° C. Saline was administered to a control group. The dose of sauvagine was 5 μg/kg given i.v. 5 min. before paw immersion.
In addition, other groups of rats were administered eithe rmorphine sulfate or dexamethasone, and groups of rats were administered saline as controls.

rat hind paw [2] = test: Heat-induced paw edema and protein extravasation, hind paw in 48° C. water for 5 min.; format: in vivo; conditions: sauvagine 5 μg/kg i.v. 5 min. before
Experimental: Male albino rats weighing 200 to 280 g were anesthetized with sodium pentobarbital, 60 mg/kg i.p., and a right jugular vein cannulated for drug injections. […] The frequency of paw withdrawal from the water was then counted. Leakage of Evans blue dye into the paw skin becomes visible within 2 min. At water temperatures of 58° C., the average dye content was 364±17 μg/paw for rats receiving saline.
as §1
FIG. 3 illustrates the inhibition by CRF of heat-induced tissue edema, as measured by changes in skin weight. When the paw of an untreated, anesthetized rat is placed in warm water (48° C.) for 5 min., the paw swells and this paw edema can be measured simply by weighing the heated paw skin and comparing its weight to the contralateral, unheated paw skin. If just saline (that is, isotonic salt water) is injected as the control procedure, the percent increase in weight (with respect to unheated paw) is 72%.

[3] = Mean arterial blood pressure (MAP); format: in vivo, rat; conditions: s.c. 60 min. before electrical stimulation of the saphenous nerve
Experimental: For injections of drugs into the brain, a 21-gauge guide cannula was stereotaxically implanted into the lateral ventricle and a 28-gauge internal cannula coupled to a Hamilton microsyringe was used to deliver a 5-μl volume of drug solution to the brain. The site of injection was verified by injections of 0.5% solutions of methylene blue into the same cannula. In some experiments, blood pressure was measured from a cannulated carotid artery coupled to a Narcobiosystems strain gauge, cardiotachometer and polygraph. Mean arterial blood pressure (MAP) was calculated as 1/3 pulse pressure plus diastolic pressure.
As has been known, CRF and related peptides produce hypotension in anesthetized and unanesthetized animals. […] Neither does the inflammation inhibition of the present invention appear to have any associaton with the hypotensive properties of CRF and its analogs.

[4] = 0.94 mg/kg i.v., 20 min. before exposure
[5] = 3.75 mg/kg i.v., 20 min. before exposure
[6] = 0.005 mg/kg i.v., 5 min. before exposure
[7] = Table I, sheep CRF at 0.168 mg/kg i.v., sauvagine at 5 μg/kg i.v.
[8] = 0.50 mg/kg i.v., 5 min. before exposure
[9] = 3.0 mg/kg i.v., 5 min. before exposure

With dynorphin (1-13) the “reduction of edema (in words)” value (rat hind paw [1]; 940 μg/kg) was “did not”, the “reduction of protein extravasation (in words)” value (rat hind paw [1]; 940 μg/kg) was “did not” and the “% Weight Increase” value (rat hind paw [1]; [4]) was 194 ± 6%. The “Dye μg/paw” value (rat hind paw [1]; [4]) was 411 ± 15 μg/paw, the “reduction of edema (in words)” value (rat hind paw [1]; 3750 μg/kg i.v.) was “did reduce edema” and the “reduction of protein extravasation (in words)” value (rat hind paw [1]; 3750 μg/kg i.v.) was “did reduce edema and protein extravasation”. For the same molecule, the “% Weight Increase” value (rat hind paw [1]; [5]) was 87 ± 17% and the “Dye μg/paw” value (rat hind paw [1]; [5]) was 223 ± 37 μg/paw.
In the case of sauvagine, the dye increase (rat hind paw [2]) is reported as 13.7 ± 3.5 μg/paw, the “paw skin weight increase” value (rat hind paw [2]) is reported as 4.9%+2.0 and the “% Weight Increase” value (rat hind paw [1]; [6]) is reported as 51 ± 11%. The “Dye μg/paw” value (rat hind paw [1]; [6]) was 86 ± 18 μg/paw, the “reduction of edema relative to saline” value (rat hind paw [1]; [7]) was “about comparable to the sheep CRF at 168 μg/kg i.v. in reducing edema” and the “reduction of protein extravasation relative to saline” value (rat hind paw [1]; [7]) was “even more effective in reducing protein extravasation”.
For `C[C@@H]1C[C@H]2[C@@H]3CCC4=CC(=O)C=C[C@]4(C)[C@@]3(F)[C@@H](O)C[C@]2(C)[C@@]1(O)C(=O)CO` [dexamethasone, reference compound], the “% Weight Increase” value (rat hind paw [1]; [8]) was 170 ± 14%, the “Dye μg/paw” value (rat hind paw [1]; [8]) was 375 ± 23 μg/paw and the “inhibition of edema (in words)” value (rat hind paw [1]; doses of Table I) was “neither morphine nor dexamethasone inhibits either edema”. The “inhibition of protein extravasation / dye leakage (in words)” value (rat hind paw [1]; doses of Table I) was “neither morphine nor dexamethasone inhibits”.
In the case of `CC[C@H](C)[C@H](NC(=O)[C@@H](NC(=O)[C@H](CCC(=O)O)NC(=O)[C@H](CCSC)NC(=O)[C@H](CC(C)C)NC(=O)[C@H](CCCCN)NC(=O)[C@H](CCCNC(=N)N)NC(=O)[C@H](CC(N)=O)NC(=O)[C@H](CO)NC(=O)[C@H](Cc1c[nH]cn1)NC(=O)[C@H](C)NC(=O)[C@H](CCC(N)=O)NC(=O)[C@H](CCC(N)=O)NC(=O)[C@H](C)NC(=O)[C@H](CC(C)C)NC(=O)[C@H](CCC(N)=O)NC(=O)[C@H](CCC(=O)O)NC(=O)[C@H](C)NC(=O)[C@H](CCCNC(=N)N)NC(=O)[C@H](C)NC(=O)[C@H](CCSC)NC(=O)[C@H](CCC(=O)O)NC(=O)[C@H](CC(C)C)NC(=O)[C@@H](NC(=O)[C@H](CCC(=O)O)NC(=O)[C@H](CCCNC(=N)N)NC(=O)[C@H](CC(C)C)NC(=O)[C@H](CC(C)C)NC(=O)[C@H](Cc1c[nH]cn1)NC(=O)[C@H](Cc1ccccc1)NC(=O)[C@@H](NC(=O)[C@H](CC(C)C)NC(=O)[C@H](CC(=O)O)NC(=O)[C@H](CC(C)C)NC(=O)[C@H](CO)NC(=O)[C@@H](NC(=O)[C@@H]1CCCN1C(=O)[C@@H]1CCCN1C(=O)[C@H](CCC(=O)O)NC(=O)[C@H](CCC(=O)O)NC(=O)[C@@H](N)CO)[C@@H](C)CC)[C@@H](C)O)C(C)C)[C@@H](C)CC)C(N)=O` [rCRF, Corticotropin Releasing Factor], the “effect on mean arterial pressure” value [3] is reported as “did not lower mean arterial pressure”.
With `CN1CC[C@]23c4c5ccc(O)c4O[C@H]2[C@@H](O)C=C[C@H]3[C@H]1C5.O=S(=O)(O)O` [morphine SO4, morphine sulfate, reference compound] the “% Weight Increase” value (rat hind paw [1]; [9]) was 157 ± 12% and the “Dye μg/paw” value (rat hind paw [1]; [9]) was 290 ± 36 μg/paw.
